Reference: patent US20180303928A1 (priority 2017, published 2018)

Experiments:
Format in all cases: biochemical, influenza A(H7N2) virus
NA of the H7N2 viruses = system: NA of the H7N2 viruses
[1] = system: NA enzymatic activity of A/chicken/NY/99
[2] = system: NA enzymatic activity of A/feline/NY/16

Row | SMILES | Susceptibility of the H7N2 viruses to NA inhibitors (NA of the H7N2 viruses) | Sensitivity to NA inhibitors (50% inhibitory concentration (IC50) of the NA enzymatic activity) [1] | Sensitivity to NA inhibitors (50% inhibitory concentration (IC50) of the NA enzymatic activity) [2]
1 | CCC(CC)[C@H](NC(C)=O)[C@@H]1[C@H](O)[C@@H](C(=O)O)C[C@H]1N=C(N)N [peramivir] | susceptible | – | –
2 | CC(=O)N[C@H]1[C@H]([C@H](O)[C@H](O)CO)OC(C(=O)O)=C[C@@H]1N=C(N)N [zanamivir] | susceptible | sensitive | sensitive
3 | CCOC(=O)C1=C[C@@H](OC(CC)CC)[C@H](NC(C)=O)[C@@H](N)C1 [oseltamivir] | susceptible | sensitive | sensitive
4 | [H]/N=C(\N)N[C@H]1C=C(C(=O)O)O[C@@H]([C@H](OC)[C@H](O)CO)[C@@H]1NC(C)=O [laninamivir] | susceptible | sensitive | sensitive
